Results taken from article PMC6109843, “Novel Quinazolinone Inhibitors of ALK2 Flip between Alternate Binding Modes: Structure–Activity Relationship, Structural Characterization, Kinase Profiling, and Cellular Proof of Concept” (Journal of Medicinal Chemistry, 2018).

Assays:
Experiment in all cases: DiscoverX scanEDGE kinase panel
Format in all cases: binding
Conditions in all cases: Cmpd Conc 1000 nM, read-out: % Ctrl
[1] = molecular target: T1, KIT (Homo sapiens, UniProt P10721)
T1 construct: purchased DiscoverX
T1 sequence (P10721 26-976): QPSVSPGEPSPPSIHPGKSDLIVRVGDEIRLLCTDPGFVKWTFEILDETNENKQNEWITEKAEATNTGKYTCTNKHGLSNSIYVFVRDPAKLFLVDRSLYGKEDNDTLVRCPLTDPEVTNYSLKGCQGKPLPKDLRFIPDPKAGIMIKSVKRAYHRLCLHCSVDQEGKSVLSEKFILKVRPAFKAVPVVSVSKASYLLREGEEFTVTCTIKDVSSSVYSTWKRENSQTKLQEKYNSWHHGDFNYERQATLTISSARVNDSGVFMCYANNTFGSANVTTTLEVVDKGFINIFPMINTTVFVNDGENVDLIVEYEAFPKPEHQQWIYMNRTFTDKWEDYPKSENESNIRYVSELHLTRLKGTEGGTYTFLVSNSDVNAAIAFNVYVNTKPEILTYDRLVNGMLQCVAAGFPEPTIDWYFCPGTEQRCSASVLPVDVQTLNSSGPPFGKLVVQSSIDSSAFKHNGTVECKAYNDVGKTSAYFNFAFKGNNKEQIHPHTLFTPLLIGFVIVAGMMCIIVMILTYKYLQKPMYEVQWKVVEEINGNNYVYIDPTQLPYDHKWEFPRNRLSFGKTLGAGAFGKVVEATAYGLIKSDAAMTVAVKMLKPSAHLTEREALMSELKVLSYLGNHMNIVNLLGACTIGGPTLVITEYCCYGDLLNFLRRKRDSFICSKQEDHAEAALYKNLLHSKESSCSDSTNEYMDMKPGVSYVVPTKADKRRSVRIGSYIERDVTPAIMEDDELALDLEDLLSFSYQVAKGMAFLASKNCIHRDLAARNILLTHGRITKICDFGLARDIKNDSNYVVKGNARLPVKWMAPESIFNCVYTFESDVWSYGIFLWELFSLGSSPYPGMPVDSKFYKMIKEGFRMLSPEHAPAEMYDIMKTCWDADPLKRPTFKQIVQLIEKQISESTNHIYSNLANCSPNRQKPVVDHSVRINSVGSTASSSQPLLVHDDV
From the text: (§1) We hypothesized that inhibitors of the normal and flipped modes would display distinct selectivity profiles.
(§2) 1. 16 and 21 kinome selectivity data
(§3) (P – phosphorylated; nP – nonphosphorylated; % Ctrl values show the % of DNAEtagged
(§4) kinase which was not displaced from a solid supported ligand by a test compound relative to
(§5) untreated control, quantified by qPCR).
(§6) Please note: ALKs 1, 2, 3, 4, 5 and 6 are listed by their gene symbols: ACVRL1 (ALK1), ACVR1
(§7) (ALK2), BMPR1A (ALK3), ACVR1B (ALK4), TGFBR1 (ALK5) and BMPR1B (ALK6)
(§8) Cmpd DiscoverX Gene Symbol Entrez Gene Symbol % Ctrl Cmpd Conc (nM)

[2] = molecular target: T2, MKNK1 (Homo sapiens, UniProt Q9BUB5)
T2 construct: purchased DiscoverX (DiscoveRx) KINOMEscan scanEDGE / KdELECT
From the text: as §1, §2, §3, §4, §5, §6, §7, §8

[3] = molecular target: T3, PIK3CG (Homo sapiens, UniProt P48736)
T3 construct: purchased DiscoverX (DiscoveRx) KINOMEscan scanEDGE / KdELECT
T3 sequence (P48736 whole entry): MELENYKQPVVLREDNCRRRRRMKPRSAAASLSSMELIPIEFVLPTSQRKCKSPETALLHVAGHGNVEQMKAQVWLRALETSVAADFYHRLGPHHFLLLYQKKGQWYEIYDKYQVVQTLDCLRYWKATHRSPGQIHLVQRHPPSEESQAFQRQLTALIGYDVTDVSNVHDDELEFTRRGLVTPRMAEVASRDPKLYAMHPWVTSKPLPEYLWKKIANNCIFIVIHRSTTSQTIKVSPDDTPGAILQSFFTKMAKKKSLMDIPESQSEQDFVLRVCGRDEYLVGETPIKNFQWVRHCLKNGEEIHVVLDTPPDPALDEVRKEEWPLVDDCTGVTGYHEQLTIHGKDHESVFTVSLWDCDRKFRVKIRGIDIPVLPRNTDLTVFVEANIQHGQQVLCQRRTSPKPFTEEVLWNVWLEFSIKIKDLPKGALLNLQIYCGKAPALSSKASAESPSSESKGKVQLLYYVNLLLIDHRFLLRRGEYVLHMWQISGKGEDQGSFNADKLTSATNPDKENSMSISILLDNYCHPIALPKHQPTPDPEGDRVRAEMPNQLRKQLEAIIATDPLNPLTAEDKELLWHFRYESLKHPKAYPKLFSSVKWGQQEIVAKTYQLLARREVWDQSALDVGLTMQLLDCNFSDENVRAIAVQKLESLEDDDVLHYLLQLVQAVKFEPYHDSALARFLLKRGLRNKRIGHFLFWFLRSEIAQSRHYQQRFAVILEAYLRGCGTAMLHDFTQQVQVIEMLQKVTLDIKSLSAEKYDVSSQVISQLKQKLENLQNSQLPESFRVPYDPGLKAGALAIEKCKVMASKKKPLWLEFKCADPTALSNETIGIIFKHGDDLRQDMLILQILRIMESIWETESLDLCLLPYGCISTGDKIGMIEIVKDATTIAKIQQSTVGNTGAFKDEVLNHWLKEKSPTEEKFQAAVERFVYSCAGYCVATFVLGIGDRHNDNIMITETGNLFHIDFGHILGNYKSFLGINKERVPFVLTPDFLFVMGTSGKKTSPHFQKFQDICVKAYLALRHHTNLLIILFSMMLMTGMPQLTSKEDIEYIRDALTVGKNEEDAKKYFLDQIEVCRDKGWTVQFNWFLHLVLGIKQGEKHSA
From the text: as §1, §2, §3, §4, §5, §6, §7, §8

[4] = molecular target: T4, ACVR2A (Homo sapiens, UniProt P27037)
T4 construct: purchased DiscoverX (DiscoveRx) KINOMEscan scanEDGE / KdELECT
From the text: as §1, §2, §3, §4, §5, §6, §7, §8

[5] = molecular target: T5, CDK9 (Homo sapiens, UniProt P50750)
T5 construct: purchased DiscoverX (DiscoveRx) KINOMEscan scanEDGE / KdELECT
From the text: as §1, §2, §3, §4, §5, §6, §7, §8

[6] = molecular target: T6, PKACEalpha (Homo sapiens, UniProt P17612)
T6 construct: purchased DiscoverX (DiscoveRx) KINOMEscan scanEDGE / KdELECT
From the text: as §1, §2, §3, §4, §5, §6, §7, §8

[7] = molecular target: T7, MKNK2 (Homo sapiens, UniProt Q9HBH9)
T7 construct: purchased DiscoverX (DiscoveRx) KINOMEscan scanEDGE / KdELECT
From the text: as §1, §2, §3, §4, §5, §6, §7, §8

[8] = molecular target: T8, ULK2 (Homo sapiens, UniProt Q8IYT8)
T8 construct: purchased DiscoverX (DiscoveRx) KINOMEscan scanEDGE / KdELECT
From the text: as §1, §2, §3, §4, §5, §6, §7, §8

[9] = molecular target: T9, LCK (Homo sapiens, UniProt P06239)
T9 construct: purchased DiscoverX (DiscoveRx) KINOMEscan scanEDGE / KdELECT
From the text: as §1, §2, §3, §4, §5, §6, §7, §8

[10] = molecular target: T10, PRKCE (Homo sapiens, UniProt Q02156)
T10 construct: purchased DiscoverX (DiscoveRx) KINOMEscan scanEDGE / KdELECT
From the text: as §1, §2, §3, §4, §5, §6, §7, §8

[11] = molecular target: T11, TGFBR1 (ALK5) (Homo sapiens, UniProt P36897)
T11 construct: purchased DiscoverX (DiscoveRx) KINOMEscan scanEDGE / KdELECT
From the text: as §1, §2, §3, §4, §5, §6, §7, §8

[12] = molecular target: T12, DCAMKL1 (Homo sapiens, UniProt O15075)
T12 construct: purchased DiscoverX (DiscoveRx) KINOMEscan scanEDGE / KdELECT
From the text: as §1, §2, §3, §4, §5, §6, §7, §8

[13] = molecular target: T13, MARK3 (Homo sapiens, UniProt P27448)
T13 construct: purchased DiscoverX (DiscoveRx) KINOMEscan scanEDGE / KdELECT
From the text: as §1, §2, §3, §4, §5, §6, §7, §8

[14] = molecular target: T14, CDK2 (Homo sapiens, UniProt P24941)
T14 construct: purchased DiscoverX (DiscoveRx) KINOMEscan scanEDGE / KdELECT
From the text: as §1, §2, §3, §4, §5, §6, §7, §8

[15] = molecular target: T15, JNK1 (Homo sapiens, UniProt P45983)
T15 construct: purchased DiscoverX (DiscoveRx) KINOMEscan scanEDGE / KdELECT
From the text: as §1, §2, §3, §4, §5, §6, §7, §8

[16] = molecular target: T16, EGFR (Homo sapiens, UniProt P00533)
T16 construct: purchased DiscoverX (DiscoveRx) KINOMEscan scanEDGE / KdELECT
From the text: as §1, §2, §3, §4, §5, §6, §7, §8

[17] = molecular target: T17, PAK2 (Homo sapiens, UniProt Q13177)
T17 construct: purchased DiscoverX (DiscoveRx) KINOMEscan scanEDGE / KdELECT
From the text: as §1, §2, §3, §4, §5, §6, §7, §8

[18] = molecular target: T18, ADCK3 (Homo sapiens, UniProt Q8NI60)
T18 construct: purchased DiscoverX (DiscoveRx) KINOMEscan scanEDGE / KdELECT
From the text: as §1, §2, §3, §4, §5, §6, §7, §8

[19] = molecular target: T19, TIE2 (Homo sapiens, UniProt Q02763)
T19 construct: purchased DiscoverX (DiscoveRx) KINOMEscan scanEDGE / KdELECT
T19 sequence (Q02763 23-1124): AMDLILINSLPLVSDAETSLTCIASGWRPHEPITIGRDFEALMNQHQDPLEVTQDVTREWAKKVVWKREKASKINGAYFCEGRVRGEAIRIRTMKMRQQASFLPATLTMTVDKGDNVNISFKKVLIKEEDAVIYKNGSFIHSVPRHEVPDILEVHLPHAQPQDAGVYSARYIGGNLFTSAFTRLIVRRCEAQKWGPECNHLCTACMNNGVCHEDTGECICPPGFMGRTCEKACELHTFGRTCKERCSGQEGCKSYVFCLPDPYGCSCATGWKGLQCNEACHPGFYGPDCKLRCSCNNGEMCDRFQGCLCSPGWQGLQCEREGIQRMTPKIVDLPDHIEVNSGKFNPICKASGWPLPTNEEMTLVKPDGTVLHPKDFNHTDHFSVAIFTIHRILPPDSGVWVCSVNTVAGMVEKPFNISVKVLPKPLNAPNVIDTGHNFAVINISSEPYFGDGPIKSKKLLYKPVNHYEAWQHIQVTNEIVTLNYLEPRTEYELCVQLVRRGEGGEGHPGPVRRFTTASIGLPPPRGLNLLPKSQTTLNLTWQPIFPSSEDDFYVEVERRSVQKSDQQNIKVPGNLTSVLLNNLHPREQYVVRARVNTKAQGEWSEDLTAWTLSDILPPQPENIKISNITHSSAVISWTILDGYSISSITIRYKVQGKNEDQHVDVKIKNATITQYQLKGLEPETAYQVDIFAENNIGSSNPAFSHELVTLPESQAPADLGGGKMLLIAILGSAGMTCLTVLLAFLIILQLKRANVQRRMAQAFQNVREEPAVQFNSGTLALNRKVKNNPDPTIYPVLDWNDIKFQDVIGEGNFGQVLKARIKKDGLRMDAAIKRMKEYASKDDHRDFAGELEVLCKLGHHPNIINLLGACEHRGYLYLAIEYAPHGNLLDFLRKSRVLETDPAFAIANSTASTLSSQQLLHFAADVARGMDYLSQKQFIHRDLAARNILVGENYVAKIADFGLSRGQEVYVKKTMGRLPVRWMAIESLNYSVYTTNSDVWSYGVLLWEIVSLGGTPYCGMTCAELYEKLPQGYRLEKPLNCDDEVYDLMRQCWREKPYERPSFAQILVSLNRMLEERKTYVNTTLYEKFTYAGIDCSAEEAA
From the text: as §1, §2, §3, §4, §5, §6, §7, §8

[20] = molecular target: T20, RIPK2 (Homo sapiens, UniProt O43353)
T20 construct: purchased DiscoverX (DiscoveRx) KINOMEscan scanEDGE / KdELECT
From the text: as §1, §2, §3, §4, §5, §6, §7, §8

[21] = molecular target: T21, ABL1EP (Homo sapiens, UniProt P00519)
T21 construct: purchased DiscoverX (DiscoveRx) KINOMEscan scanEDGE / KdELECT
From the text: as §1, §2, §3, §4, §5, §6, §7, §8

[22] = molecular target: T22, PDGFRA (Homo sapiens, UniProt P16234)
T22 construct: purchased DiscoverX (DiscoveRx) KINOMEscan scanEDGE / KdELECT
T22 sequence (P16234 24-1089): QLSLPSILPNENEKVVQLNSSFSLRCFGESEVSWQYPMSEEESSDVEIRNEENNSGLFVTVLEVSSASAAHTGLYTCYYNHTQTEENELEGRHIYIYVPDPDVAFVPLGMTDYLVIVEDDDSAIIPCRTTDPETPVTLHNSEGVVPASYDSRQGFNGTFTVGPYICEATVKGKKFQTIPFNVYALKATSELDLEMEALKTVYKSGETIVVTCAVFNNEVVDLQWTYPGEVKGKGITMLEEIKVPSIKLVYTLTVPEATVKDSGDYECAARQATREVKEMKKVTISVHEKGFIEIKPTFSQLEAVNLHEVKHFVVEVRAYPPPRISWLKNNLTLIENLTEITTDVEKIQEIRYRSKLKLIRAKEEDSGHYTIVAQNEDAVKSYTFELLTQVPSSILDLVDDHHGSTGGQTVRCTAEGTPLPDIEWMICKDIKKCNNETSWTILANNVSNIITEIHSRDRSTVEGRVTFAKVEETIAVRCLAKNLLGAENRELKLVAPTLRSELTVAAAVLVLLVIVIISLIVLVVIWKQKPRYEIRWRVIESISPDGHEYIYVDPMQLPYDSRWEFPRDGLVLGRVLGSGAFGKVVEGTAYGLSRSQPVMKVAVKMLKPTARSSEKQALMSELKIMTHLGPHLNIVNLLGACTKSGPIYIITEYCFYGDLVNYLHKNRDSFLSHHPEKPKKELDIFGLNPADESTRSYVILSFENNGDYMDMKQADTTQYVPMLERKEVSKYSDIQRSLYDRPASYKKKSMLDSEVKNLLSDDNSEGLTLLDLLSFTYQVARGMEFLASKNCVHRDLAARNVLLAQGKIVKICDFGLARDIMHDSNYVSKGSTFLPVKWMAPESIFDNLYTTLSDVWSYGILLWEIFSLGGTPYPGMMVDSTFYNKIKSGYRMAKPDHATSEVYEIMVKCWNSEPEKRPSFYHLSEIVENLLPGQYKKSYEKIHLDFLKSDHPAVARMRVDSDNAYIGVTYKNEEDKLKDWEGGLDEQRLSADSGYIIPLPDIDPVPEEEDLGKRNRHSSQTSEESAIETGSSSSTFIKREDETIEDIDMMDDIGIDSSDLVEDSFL
From the text: as §1, §2, §3, §4, §5, §6, §7, §8

[23] = molecular target: T23, AURKB (Homo sapiens, UniProt Q96GD4)
T23 construct: purchased DiscoverX (DiscoveRx) KINOMEscan scanEDGE / KdELECT
From the text: as §1, §2, §3, §4, §5, §6, §7, §8

[24] = molecular target: T24, EGFR(L858R) (Homo sapiens, UniProt P00533, L858R)
T24 construct: purchased DiscoverX (DiscoveRx) KINOMEscan scanEDGE / KdELECT
From the text: as §1, §2, §3, §4, §5, §6, §7, §8

[25] = molecular target: T25, ABL1(T315I)EP (Homo sapiens, UniProt P00519, T315I)
T25 construct: purchased DiscoverX (DiscoveRx) KINOMEscan scanEDGE / KdELECT
From the text: as §1, §2, §3, §4, §5, §6, §7, §8

[26] = molecular target: T26, CDK7 (Homo sapiens, UniProt P50613)
T26 construct: purchased DiscoverX (DiscoveRx) KINOMEscan scanEDGE / KdELECT
From the text: as §1, §2, §3, §4, §5, §6, §7, §8

[27] = molecular target: T27, ACVR1B (ALK4) (Homo sapiens, UniProt P36896)
T27 construct: purchased DiscoverX (DiscoveRx) KINOMEscan scanEDGE / KdELECT
From the text: as §1, §2, §3, §4, §5, §6, §7, §8

[28] = molecular target: T28, BMPR1B (ALK6) (Homo sapiens, UniProt O00238)
T28 construct: purchased DiscoverX (DiscoveRx) KINOMEscan scanEDGE / KdELECT
T28 sequence (O00238 14-502): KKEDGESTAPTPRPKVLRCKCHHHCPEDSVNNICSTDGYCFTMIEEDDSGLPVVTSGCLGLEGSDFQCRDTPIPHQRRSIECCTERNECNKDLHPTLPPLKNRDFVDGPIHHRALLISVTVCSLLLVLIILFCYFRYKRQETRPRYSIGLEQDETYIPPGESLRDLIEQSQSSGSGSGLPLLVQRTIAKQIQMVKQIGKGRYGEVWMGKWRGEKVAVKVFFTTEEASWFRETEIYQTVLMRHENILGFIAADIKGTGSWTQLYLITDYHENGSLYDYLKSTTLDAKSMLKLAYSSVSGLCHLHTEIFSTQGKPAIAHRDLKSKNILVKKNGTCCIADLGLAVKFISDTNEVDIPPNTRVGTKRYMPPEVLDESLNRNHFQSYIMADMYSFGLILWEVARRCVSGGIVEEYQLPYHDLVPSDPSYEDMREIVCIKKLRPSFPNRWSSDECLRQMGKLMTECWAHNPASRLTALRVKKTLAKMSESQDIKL
From the text: as §1, §2, §3, §4, §5, §6, §7, §8

[29] = molecular target: T29, SRPK3 (Homo sapiens, UniProt Q9UPE1)
T29 construct: purchased DiscoverX (DiscoveRx) KINOMEscan scanEDGE / KdELECT
From the text: as §1, §2, §3, §4, §5, §6, §7, §8

[30] = molecular target: T30, ABL1EnP (Homo sapiens, UniProt P00519)
T30 construct: purchased DiscoverX (DiscoveRx) KINOMEscan scanEDGE / KdELECT
From the text: as §1, §2, §3, §4, §5, §6, §7, §8

[31] = molecular target: T31, SNARK (Homo sapiens, UniProt Q9H093)
T31 construct: purchased DiscoverX (DiscoveRx) KINOMEscan scanEDGE / KdELECT
From the text: as §1, §2, §3, §4, §5, §6, §7, §8

[32] = molecular target: T32, PDPK1 (Homo sapiens, UniProt O15530)
T32 construct: purchased DiscoverX (DiscoveRx) KINOMEscan scanEDGE / KdELECT
From the text: as §1, §2, §3, §4, §5, §6, §7, §8

[33] = molecular target: T33, RSK2(Kin.Dom.1ENEterminal) (Homo sapiens, UniProt P51812)
T33 construct: RSK2(Kin.Dom.1ENEterminal); purchased DiscoverX (DiscoveRx) KINOMEscan scanEDGE / KdELECT
From the text: as §1, §2, §3, §4, §5, §6, §7, §8

[34] = molecular target: T34, AURKA (Homo sapiens, UniProt O14965)
T34 construct: purchased DiscoverX (DiscoveRx) KINOMEscan scanEDGE / KdELECT
From the text: as §1, §2, §3, §4, §5, §6, §7, §8

[35] = molecular target: T35, CDK3 (Homo sapiens, UniProt Q00526)
T35 construct: purchased DiscoverX (DiscoveRx) KINOMEscan scanEDGE / KdELECT
T35 sequence (Q00526 whole entry): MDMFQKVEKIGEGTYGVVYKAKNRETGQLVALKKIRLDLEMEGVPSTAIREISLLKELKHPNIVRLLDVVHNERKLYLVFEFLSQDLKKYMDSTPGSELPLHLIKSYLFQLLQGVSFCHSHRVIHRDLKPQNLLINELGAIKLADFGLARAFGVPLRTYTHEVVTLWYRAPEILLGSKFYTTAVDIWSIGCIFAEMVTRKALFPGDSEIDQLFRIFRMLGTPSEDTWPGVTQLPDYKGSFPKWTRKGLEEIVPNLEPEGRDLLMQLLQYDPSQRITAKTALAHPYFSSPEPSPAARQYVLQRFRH
From the text: as §1, §2, §3, §4, §5, §6, §7, §8

[36] = molecular target: T36, ABL2 (Homo sapiens, UniProt P42684)
T36 construct: purchased DiscoverX (DiscoveRx) KINOMEscan scanEDGE / KdELECT
From the text: as §1, §2, §3, §4, §5, §6, §7, §8

[37] = molecular target: T37, JNK2 (Homo sapiens, UniProt P45984)
T37 construct: purchased DiscoverX (DiscoveRx) KINOMEscan scanEDGE / KdELECT
From the text: as §1, §2, §3, §4, §5, §6, §7, §8

[38] = molecular target: T38, YANK3 (Homo sapiens, UniProt Q86UX6)
T38 construct: purchased DiscoverX (DiscoveRx) KINOMEscan scanEDGE / KdELECT
From the text: as §1, §2, §3, §4, §5, §6, §7, §8

[39] = molecular target: T39, CSNK1G2 (Homo sapiens, UniProt P78368)
T39 construct: purchased DiscoverX (DiscoveRx) KINOMEscan scanEDGE / KdELECT
From the text: as §1, §2, §3, §4, §5, §6, §7, §8

## Cc1nc2ccc(-c3ccnc4ccccc34)c(C)c2c(=O)[nH]1 [compound 21, 2,5-Dimethyl-6-(quinolin-4-yl)quinazolin-4(3H)-one]
[1]
  remaining binding at 1 µM: 97%
[2]
  remaining binding at 1 µM: 93%
[3]
  remaining binding at 1 µM: 98%
[4]
  remaining binding at 1 µM: 83%
[5]
  remaining binding at 1 µM: 100%
[6]
  remaining binding at 1 µM: 100%
[7]
  remaining binding at 1 µM: 92%
[8]
  remaining binding at 1 µM: 77%
[9]
  remaining binding at 1 µM: 96%
[10]
  remaining binding at 1 µM: 91%
[11]
  remaining binding at 1 µM: 30%
[12]
  remaining binding at 1 µM: 87%
[13]
  remaining binding at 1 µM: 83%
[14]
  remaining binding at 1 µM: 100%
[15]
  remaining binding at 1 µM: 91%
[16]
  remaining binding at 1 µM: 98%
[17]
  remaining binding at 1 µM: 77%
[18]
  remaining binding at 1 µM: 97%
[19]
  remaining binding at 1 µM: 89%
[20]
  remaining binding at 1 µM: 68%
[21]
  remaining binding at 1 µM: 97%
[22]
  remaining binding at 1 µM: 93%
[23]
  remaining binding at 1 µM: 94%
[24]
  remaining binding at 1 µM: 98%
[25]
  remaining binding at 1 µM: 97%
[26]
  remaining binding at 1 µM: 100%
[27]
  remaining binding at 1 µM: 18%
[28]
  remaining binding at 1 µM: 1.6%
[29]
  remaining binding at 1 µM: 96%
[30]
  remaining binding at 1 µM: 91%
[31]
  remaining binding at 1 µM: 100%
[32]
  remaining binding at 1 µM: 95%
[33]
  remaining binding at 1 µM: 97%
[34]
  remaining binding at 1 µM: 100%
[35]
  remaining binding at 1 µM: 94%
[36]
  remaining binding at 1 µM: 93%
[37]
  remaining binding at 1 µM: 91%
[38]
  remaining binding at 1 µM: 95%
[39]
  remaining binding at 1 µM: 92%
